Laboratory results published in US6365591B1, “Isoxazolecarboxamide derivatives” (Recordati, S.A., Chemical and Pharmacueticals Company, priority 1999, dated 2002).
Read-outs that look alike come from different tables or passages of the source.

What was measured:
[1] = target: T1, α1L adrenoceptor (Oryctolagus cuniculus, UniProt O02824); test: Functional antagonism of noradrenaline-induced contractions of rabbit aorta pretreated with chloroethylclonidine; format: biochemical
T1 sequence (O02824 1-466): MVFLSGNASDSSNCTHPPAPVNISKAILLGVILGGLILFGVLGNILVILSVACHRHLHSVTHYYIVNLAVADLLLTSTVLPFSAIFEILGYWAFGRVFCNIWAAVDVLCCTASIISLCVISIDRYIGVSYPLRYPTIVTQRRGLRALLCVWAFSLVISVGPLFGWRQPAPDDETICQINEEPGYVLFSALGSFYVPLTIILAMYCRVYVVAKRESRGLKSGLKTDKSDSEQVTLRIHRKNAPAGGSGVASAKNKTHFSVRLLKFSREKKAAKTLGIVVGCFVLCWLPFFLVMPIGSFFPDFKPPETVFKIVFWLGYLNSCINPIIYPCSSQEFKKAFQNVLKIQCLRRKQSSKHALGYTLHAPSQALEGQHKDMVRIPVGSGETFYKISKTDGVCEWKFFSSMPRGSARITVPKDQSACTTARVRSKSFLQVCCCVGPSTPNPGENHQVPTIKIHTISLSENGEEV
Protocol: Adult male New Zealand rabbits were sacrificed by cervical dislocation. The aorta was removed, placed in Krebs-Henseleit buffer and dissected free of adhering tissue. […] Desmethylimipramine (0.1 μM) and corticosterone (1 μM) to block neuronal and extraneuronal uptake of NA, (±)-propranol (1 μM) to block β adrenoceptors and yohimbine (0.1 μM) to block α2 adrenoceptors were added to the buffer.
Each antagonist concentration was tested using 2-3 aortic rings from different rabbits.
The logarithm of these dose ratio −1 was plotted against the logarithm of the compound concentrations (Schild plot) to evaluate the affinity constant Kb.

[2] = tested on: recombinant α1a-adrenoceptor; conditions: literature statement (Leonardi et al. 1997); cited from earlier work
[3] = tested on: prostatic urethral pressure (hypogastric-nerve stimulation); conditions: anaesthetised dogs, i.v.; data from Leonardi et al. 1997; cited from earlier work
[4] = tested on: diastolic blood pressure; conditions: cited from earlier work; for DBP ED25: dose inducing a 25% decrease in diastolic blood pressure: anaesthetised dogs, i.v., data from Leonardi et al. 1997
[5] = tested on: prostatic urethral pressure (noradrenaline-induced); conditions: cited from earlier work
[6] = dog model, literature (Leonardi et al. 1997)

Structure (SMILES): COc1ccccc1N1CCN(CCCNC(=O)c2cccc3c(=O)c(C)c(-c4ccccc4)oc23)CC1 [Compound A]
- Functional affinity for the α1L adrenoceptor subtype, pKb [1]: 8.91
- affinity for the α1A adrenoceptor [2]: good affinity
- UP ID50 HYP: dose inhibiting by 50% the urethral contractions induced by hypogastric-nerve stimulation [3]: 0.0067 mg/kg
- DBP ED25: dose inducing a 25% decrease in diastolic blood pressure ([4]; first of two DBP values (the one that gives R1, NA)): 0.243 mg/kg
- DBP ED25: dose inducing a 25% decrease in diastolic blood pressure ([4]; second of two DBP values (the one that gives R2, HYP)): 0.177 mg/kg
- effects on blood pressure [4, 6]: without substantial effects on blood pressure
- UP ID50 NA: dose inhibiting by 50% the urethral contractions induced by noradrenaline ([5]; anaesthetised dogs, i.v., data from Leonardi et al. 1997): 0.0024 mg/kg
- inhibition of contractility of the prostatic urethra [5, 6]: selectively inhibit contractility of the prostatic urethra
